Results taken from PubChem BioAssay AID504458 (NMMLSC, 2011).
pEC50: −log10 of the molar value. Calls of active or inactive are those of the source. How the calls were made is not given here.

Target: General amino acid permease AGP1 (Saccharomyces cerevisiae (strain ATCC 204508 / S288c)) (UniProt P25376)
Assay: compound effects on AGP1 permease GFP reporter – TOR pathway, S. cerevisiae, flow cytometry, KU SAR set 2, multiplex, dose response (AID 504458)
Conditions: flow cytometry fluorescence, 3 h

Chain of General amino acid permease AGP1 (Saccharomyces cerevisiae (strain ATCC 204508 / S288c)) (P25376 whole entry, looked up): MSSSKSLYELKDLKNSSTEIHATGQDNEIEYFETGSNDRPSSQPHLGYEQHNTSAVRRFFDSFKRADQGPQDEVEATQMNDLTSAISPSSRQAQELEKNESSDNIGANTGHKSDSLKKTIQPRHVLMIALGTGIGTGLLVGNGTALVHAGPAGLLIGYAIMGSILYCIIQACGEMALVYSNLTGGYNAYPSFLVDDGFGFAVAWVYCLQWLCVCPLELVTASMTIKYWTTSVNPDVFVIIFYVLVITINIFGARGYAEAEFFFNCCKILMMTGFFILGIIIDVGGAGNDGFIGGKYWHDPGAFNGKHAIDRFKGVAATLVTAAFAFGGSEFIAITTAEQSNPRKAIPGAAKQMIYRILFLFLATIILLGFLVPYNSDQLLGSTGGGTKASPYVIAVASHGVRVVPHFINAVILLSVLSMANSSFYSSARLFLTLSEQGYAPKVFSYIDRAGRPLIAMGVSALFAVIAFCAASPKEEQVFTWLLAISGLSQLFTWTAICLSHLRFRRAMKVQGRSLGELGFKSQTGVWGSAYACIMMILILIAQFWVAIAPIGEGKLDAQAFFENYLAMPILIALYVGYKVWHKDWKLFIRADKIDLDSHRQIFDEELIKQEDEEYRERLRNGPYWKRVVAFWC

| SMILES | EC50 | pEC50 |
| --- | --- | --- |
| COc1ccccc1-c1cc(Nc2cc(C)[nH]n2)nc(NCc2ccccc2)n1 | inactive | – |
| O=[N+]([O-])c1c(NC2CCCCC2)nc(NCc2ccccc2)nc1N1CCOCC1 | inactive | – |
| CNc1nc(N)c(C(=O)c2ccc(C)c(C)c2)c(Nc2cccc(Cl)c2)n1 | inactive | – |
| CCNc1nc(N)c([N+](=O)[O-])c(Nc2cccc(Cl)c2)n1 | – | 5.01 |
| Cc1cc(Nc2cc(-c3ccccc3)nc(NCc3ccccc3)n2)n[nH]1 | inactive | – |
| CNc1nc(N)c([N+](=O)[O-])c(Nc2ccccc2Br)n1 | inactive | – |
| CNc1nc(N)cc(Nc2cccc(Cl)c2)n1 | inactive | – |
| CCOC(=O)c1c(N)nc(NC)nc1Nc1cccc(F)c1 | inactive | – |
| CNc1nc(N)c([N+](=O)[O-])c(Nc2cccc(Oc3ccccc3)c2)n1 | inactive | – |
| CNc1nc(NC)c([N+](=O)[O-])c(Nc2cccc(Cl)c2)n1 | inactive | – |
| CNc1nc(N)cc(Oc2cccc(Cl)c2)n1 | inactive | – |
| COC(=O)c1cccc(-c2cc(Nc3cc(C)[nH]n3)nc(NCc3ccccc3)n2)c1 | inactive | – |
| CNc1nc(N)cc(Nc2ccccc2F)n1 | inactive | – |
| Cc1cc(Nc2cc(Nc3ccccc3)nc(NCc3ccccc3)n2)n[nH]1 | inactive | – |
| CCNc1nc(NC2CCCCC2)c([N+](=O)[O-])c(N2CCOCC2)n1 | inactive | – |
